This is an account of results in US4118487A, “Substituted azol-1-ylmethanes” (Bayer Aktiengesellschaft, priority 1974, dated 1978).

The subject of one experiment is Streptococcus pyogenes W. The experiment can be described thus: Antibacterial activity in vitro, plast test (MIC). The format is cell-based. To be noted: agar plate, 5 × 10^3 /plate, pH 7.4; in µg/mL. On the procedure: (§1) The in vitro tests were carried out by the plast test. In this, the bacteria were cast with the agar, at a concentration of 5 × 10^3 /plate. […]

Experiment [1] deals with Staphylococcus aureus 133. The experiment can be described thus: Antibacterial activity in vitro, plast test (MIC). The class given is cell-based. Particulars: agar plate, 5 × 10^3 /plate, pH 7.4. Here is the method: as §1
The next experiment deals with bacteria. The experiment can be described thus: Antibacterial activity (general statement). The format is cell-based.
In another experiment the test system is fungi. To be noted: Belgian Pat. No. 720,801; cited from earlier work.
In another experiment the test system is Histoplasma. Nature of the experiment: microbe, parasite or virus in culture. To be noted: read-out: MIC values in γ/ml of nutrient medium, for Histoplasma. The format is cell-based.
The subject of experiment [2] is Trichophyton mentagrophvtes. The experiment can be described thus: Antimycotic activity in vitro, series dilution test (MIC). The class given is cell-based, Trichophyton mentagrophytes. Particulars: 28° C., 24-96 hours, Sabouraud's milieu d'epreuve, 5 × 10^4 germs/ml, read-out: MIC values in γ/ml of nutrient medium, for Trichophyton mentagrophvtes. On the procedure: (§2) The in vitro tests were carried out in a series dilution test with germ inocula averaging 5 × 10^4 germs/ml of substrate. The nutrient media used were
(§3) (a) for dermatophytes and molds Sabouraud's milieu d'epreuve,
(§4) The incubation temperatures were 28° C. for dermatophytes, yeasts and molds and 37° C. for biphase fungi; the incubation time was 24-96 hours.

The next experiment has as its system Pityrosporum ovale. The description is as above. The class given is cell-based. Particulars: Malassezia furfur; Abbe medium, 24-96 hours, 5 × 10^4 germs/ml; read-out: MIC values in γ/ml of nutrient medium, for Pityrosporum ovale. Here is the method:
The in vitro tests were carried out in a series dilution test with germ inocula averaging 5 × 10^4 germs/ml of substrate. The nutrient media used were (c) for Pytrosporum ovale: Abbe medium, and The incubation temperatures were 28° C. for dermatophytes, yeasts and molds and 37° C. for biphase fungi; the incubation time was 24-96 hours.

The subject of a further experiment is Candida albicans. Described as above. The class given is cell-based. To be noted: read-out: MIC values in γ/ml of nutrient medium, for Candida albicans. On the procedure:
as §2
(b) for yeasts: meat extract-glucose bouillon,
as §4

The subject of a further experiment is penicillium. The description is as above. The class given is cell-based. Particulars: 28° C., 24-96 hours, Sabouraud's milieu d'epreuve, 5 × 10^4 germs/ml, read-out: MIC values in γ/ml of nutrient medium, for penicillium. On the procedure: as §2, §3, §4
A further experiment concerns Aspergillus fumigatus. Described as above. The class given is cell-based. To be noted: read-out: MIC values in γ/ml of nutrient medium, for Aspergillus fumigatus. Here is the method: as §2, §3, §4
For the next experiment, the system named is Pseudomonas aerug. B. The experiment can be described thus: Antibacterial activity in vitro, plast test (MIC). The class given is cell-based. Particulars: agar plate, 5 × 10^3 /plate, pH 7.4. Here is the method:
as §1

A further experiment relates to Proteus vulgaris 1017. Nature of the experiment: Antibacterial activity in vitro, plast test (MIC). The class given is cell-based. To be noted: agar plate, 5 × 10^3 /plate, pH 7.4. Here is the method:
as §1

The next experiment deals with Klebsiella 8085. Nature of the experiment: Antibacterial activity in vitro, plast test (MIC). Particulars: agar plate, 5 × 10^3 /plate, pH 7.4. The class given is cell-based. On the procedure: as §1
Another experiment concerns E-Coli A 261. The experiment can be described thus: Antibacterial activity in vitro, plast test (MIC). The class given is cell-based. Particulars: agar plate, 5 × 10^3 /plate, pH 7.4. On the procedure: as §1
[3] abbreviates: 28° C., 24-96 hours, meat extract-glucose bouillon, 5 × 10^4 germs/ml.
The mark [4] stands for this setting: 28° C., 24-96 hours, Sabouraud's milieu d'epreuve, 5 × 10^4 germs/ml.

≈ marks a conversion by molar mass, not a printed value. Where two headings read alike, the source gives them in different places.

On to `Clc1ccc(C(c2ccc(-c3ccccc3)cc2)n2ccnc2)cc1` (centres unmarked), for which the “MIC values for Streptococcus pyogenes W” value against Streptococcus pyogenes W was 10. In experiment [1], this compound gave an MIC values for Staphylococcus aureus 133 of 8 µg/mL.

In the case of `C[C@@H]1C/C=C/C=C/C=C/C=C/[C@H](O[C@@H]2O[C@H](C)[C@@H](O)[C@H](N)[C@@H]2O)C[C@@H]2O[C@](O)(C[C@@H](O)C[C@H]3O[C@@H]3/C=C/C(=O)O1)C[C@H](O)[C@H]2C(=O)O` [pimaricin], the antibacterial activity result in the experiment with bacteria is recorded as “not present”.

In the case of `Clc1ccccc1C(c1ccccc1)(c1ccccc1)n1ccnc1` [clotrimazol, bisphenyl-(2-chlorophenyl)-imidazol-1-ylmethane], in the experiment with fungi, the antimycotic action entry is given as “good antimycotic action”.

In the case of `Clc1cccc(C(c2ccc(-c3ccccc3)cc2)n2ccnc2)c1` (centres unmarked) [drawing 16], in the experiment with Streptococcus pyogenes W, the “MIC values for Streptococcus pyogenes W” value is reported as 128. The same compound returned an MIC values for Staphylococcus aureus 133 in experiment [1] of 8 µg/mL.

Take `Clc1ccccc1C(c1ccc(Oc2ccccc2)cc1)n1ccnc1` (centres unmarked): the MIC was 2 µg/mL (≈ 5.54 µM) in the experiment with Histoplasma; 16 µg/mL (≈ 44.3 µM) in experiment [2]; 1 µg/mL (≈ 2.77 µM) with Pityrosporum ovale; 8 µg/mL (≈ 22.2 µM) with Candida albicans (setting [3]); less than 0.1 µg/mL in the experiment on penicillium; less than 0.1 µg/mL with Aspergillus fumigatus (setting [4]).

With `CC(C)(C)c1ccc(C(c2ccc(-c3ccccc3)cc2)n2ccnc2)cc1` (centres unmarked), the MIC values for Pseudomonas aerug. B with Pseudomonas aerug. B amounted to 256 µg/mL. Also, in the experiment on Streptococcus pyogenes W, the “MIC values for Streptococcus pyogenes W” value is 128. In experiment [1], this compound registered an MIC values for Staphylococcus aureus 133 of 8 µg/mL. In addition, the MIC values for Proteus vulgaris 1017 against Proteus vulgaris 1017 was found to be 128 µg/mL. The compound further came in with an MIC values for Klebsiella 8085 against Klebsiella 8085 of 128 µg/mL.

With `C[C@@H]1[C@H](O)[C@@H](C)/C=C/C=C/CC/C=C/C=C/C=C/C=C/C(O[C@H]2O[C@H](C)[C@@H](O)[C@H](N)[C@@H]2O)CC2O[C@](O)(CC(O)C(O)CCC(O)CC(O)CC(O)CC(=O)O[C@H]1C)CC(O)C2C(=O)O` (some centres unmarked) [nystatin], the antibacterial activity entry with bacteria is listed as “not present”.

For the compound `c1ccc(-c2ccc(C(c3ccccc3)n3ccnc3)cc2)cc1` (centres unmarked) [drawing 9], the MIC with Histoplasma was 4 µg/mL (≈ 12.9 µM); in experiment [2], less than 1 µg/mL; with Pityrosporum ovale, 1 µg/mL (≈ 3.22 µM); with Candida albicans it was 4 µg/mL (≈ 12.9 µM); in the experiment on penicillium, less than 0.1 µg/mL; with Aspergillus fumigatus it was less than 0.1 µg/mL.

`Clc1ccccc1C(c1ccc(-c2ccccc2)cc1)n1ccnc1` (centres unmarked) [drawing 14] showed an MIC values for Pseudomonas aerug. B in the experiment on Pseudomonas aerug. B of 256 µg/mL. Besides, in the experiment on Streptococcus pyogenes W, the “MIC values for Streptococcus pyogenes W” value amounted to 128. In experiment [1], the MIC values for Staphylococcus aureus 133 turned out to be 8 µg/mL. Besides, the MIC values for Proteus vulgaris 1017 with Proteus vulgaris 1017 came out at 128 µg/mL. Moreover, the MIC values for E-Coli A 261 in the experiment on E-Coli A 261 is 256 µg/mL. The MIC values for Klebsiella 8085 in the experiment on Klebsiella 8085 amounted to 128 µg/mL.

Consider `COC1=CC(=O)C[C@@H](C)[C@]12Oc1c(Cl)c(OC)cc(OC)c1C2=O` [griseofulvin], for which the antibacterial activity result in the experiment with bacteria was “not present”.

For the compound `c1ccc(-c2ccc(C(c3ccccc3)n3ccnc3)cc2)cc1` (centres unmarked) [drawing 13], in the experiment with Streptococcus pyogenes W, the “MIC values for Streptococcus pyogenes W” value is 10-20. Besides, in experiment [1], the MIC values for Staphylococcus aureus 133 was found to be 8 µg/mL. Moreover, the MIC values for Proteus vulgaris 1017 with Proteus vulgaris 1017 came to 128 µg/mL. Further, the MIC values for Klebsiella 8085 in the experiment on Klebsiella 8085 turned out to be 128 µg/mL.

For `Clc1cccc(C(c2ccc(-c3ccccc3)cc2)n2ccnc2)c1` (centres unmarked) [drawing 11], the MIC was 2 µg/mL (≈ 5.8 µM) in the experiment on Histoplasma; 2 µg/mL (≈ 5.8 µM) in experiment [2]; 1 µg/mL (≈ 2.9 µM) in the experiment on Pityrosporum ovale; 1 µg/mL (≈ 2.9 µM) in the experiment on Candida albicans (setting [3]); less than 0.1 µg/mL in the experiment with penicillium; less than 0.1 µg/mL with Aspergillus fumigatus (setting [4]).

Regarding `Clc1ccccc1C(c1ccc(-c2ccccc2)cc1)n1ccnc1` (centres unmarked) [drawing 10], the MIC with Histoplasma was 4 µg/mL (≈ 11.6 µM); in experiment [2], less than 1 µg/mL; in the experiment with Pityrosporum ovale, 1 µg/mL (≈ 2.9 µM); with Candida albicans (setting [3]), 2 µg/mL (≈ 5.8 µM); in the experiment on penicillium, less than 0.1 µg/mL; in the experiment on Aspergillus fumigatus (setting [4]) it was less than 0.1 µg/mL.
